pIC50: −log10 of the molar value.
Target: T1, CCR1 (Homo sapiens, UniProt P32246)
T1 sequence (P32246 1-355): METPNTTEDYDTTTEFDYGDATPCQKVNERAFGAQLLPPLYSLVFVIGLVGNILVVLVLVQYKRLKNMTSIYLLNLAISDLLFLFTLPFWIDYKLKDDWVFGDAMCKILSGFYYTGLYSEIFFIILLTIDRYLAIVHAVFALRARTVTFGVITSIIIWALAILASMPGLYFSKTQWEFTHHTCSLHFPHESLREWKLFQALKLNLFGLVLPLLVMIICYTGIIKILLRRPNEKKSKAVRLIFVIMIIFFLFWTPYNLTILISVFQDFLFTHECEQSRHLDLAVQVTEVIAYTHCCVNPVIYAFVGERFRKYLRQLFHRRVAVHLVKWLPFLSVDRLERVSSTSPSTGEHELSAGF
Experiment: CCR1 chemotaxis assay or binding assay (inhibition of CCR1 ligand binding / CCR1 mediated migration)
Procedure: Cells were grown under 5% CO2/95% air, 100% humidity at 37° C. and subcultured twice weekly at 1:5 (cells were cultured at a density range of 2×10^5 to 2×10^6 cells/mL) and harvested at 1×10^6 cells/mL.
Monocytes were isolated from human buffy coats using the Miltenyi bead isolation system (Miltenyi, Auburn, Calif.). Briefly, following a Ficoll gradient separation to isolate peripheral blood mononuclear cells, cells were washed with PBS and the red blood cells lysed using standard procedures. Remaining cells were labeled with anti-CD14 antibodies coupled to magnetic beads (Miltenyi Biotech, Auburn, Calif.). Labeled cells were passed through AutoMACS (Miltenyi, Auburn, Calif.) and positive fraction collected.
CCR1 expressing cells were centrifuged and resuspended in assay buffer (20 mM HEPES pH 7.1, 140 mM NaCl, 1 mM CaCl2, 5 mM MgCl2, and with 0.2% bovine serum albumin) to a concentration of 5×10^6 cells/mL for THP-1 cells and 5×10^5 for monocytes. Binding assays were set up as follows. […] Reactions were aspirated onto GF/B glass filters pre-soaked in 0.3% polyethyleneimine (PEI) solution, on a vacuum cell harvester (Packard Instruments; Meriden, Conn.). Scintillation fluid (40 μl; Microscint 20, Packard Instruments) was added to each well, the plates were sealed and radioactivity measured in a Topcount scintillation counter (Packard Instruments). Control wells containing either diluent only (for total counts) or excess MIP-1α or MIP-1β (1 μg/mL, for non-specific binding) were used to calculate the percent of total inhibition for compound. The computer program Prism from GraphPad, Inc. (San Diego, Calif.) was used to calculate IC50 values.
Chemotaxis assays were performed using 5 ? m pore polycarbonate, polyvinylpyrrolidone-coated filters in 96-well chemotaxis chambers (Neuroprobe; Gaithersburg, Md.) using chemotaxis buffer (Hank's balanced salt solution (HBSS) and 1% FBS). CCR1 chemokine ligands (i.e., MIP-1α, CCL15/Leukotactin; R&D Systems; Minneapolis, Minn.) are use to evaluate compound mediated inhibition of CCR1 mediated migration. Other chemokines (i.e., SDF-1α; R&D Systems; Minneapolis, Minn.) are used as specificity controls. […] The chambers were incubated 1-2 hours at 37° C., and the number of cells in the lower chamber quantified either by direct cell counts in five high powered fields per well or by the CyQuant assay (Molecular Probes), a fluorescent dye method that measures nucleic acid content and microscopic observation.
Equal numbers of cells were added to each well in the plate. The cells were then incubated with radiolabeled MIP-1α. Unbound ligand was removed by washing the cells, and bound ligand was determined by quantifying radioactive counts. […] Percent inhibition was determined by the equation:
In the assay, the amount of compound was varied; while cell number and ligand concentration were held constant.
THP-1 myelomonocytic leukemia cells, which resemble monocytes, as wells as freshly isolated monocytes, were used as targets for chemoattraction by CCR1 chemokine ligands (i.e., MIP-1α, CCL15/leukotactin). […] In this assay, the amount of compound was varied; while cell number and chemokine agonist concentrations were held constant. After the chemotaxis chambers were incubated 1-2 hours at 37° C., the responding cells in the lower chamber were quantified by labeling with the CyQuant assay (Molecular Probes), a fluorescent dye method that measures nucleic acid content, and by measuring with a Spectrafluor Plus (Tecan).

| SMILES | pIC50 |
| --- | --- |
| CNC(=O)C1(c2ccc(Cl)cc2)CCN(C(=O)Cn2nc(C(F)(F)F)c(Cl)c2C)CC1 [Example 13, 1-[2-(4-chloro-5-methyl-3-trifluoromethyl-pyrazol-1-yl)-acetyl]-4-(4-chloro-phenyl)-piperidine-4-methylamide] | 4.60 to 6.00 |
| Cc1c(Cl)c(C(F)(F)F)nn1CC(=O)N1CCC(CO)(c2ccc(Cl)cc2)CC1 [Example 23, 2-(4-chloro-5-methyl-3-trifluoromethyl-pyrazol-1-yl)-1-[4-(4-chloro-phenyl)-4-hydroxymethyl-piperidin-1-yl]-ethanone] | 4.60 to 6.00 |
| Cc1c(Cl)c(C(F)(F)F)nn1CC(=O)N1CCC(C(=O)N2CCCCC2)(c2ccc(Cl)cc2)CC1 [Example 16, 2-(4-chloro-5-methyl-3-trifluoromethyl-pyrazol-1-yl)-1-[4-(4-chloro-phenyl)-4-(piperidine-1-carbonyl)-piperidin-1-yl]-ethanone] | 4.60 to 6.00 |
| COc1cc(C2(O)CCN(C(=O)Cn3nc(C(F)(F)F)c(Cl)c3C)CC2)ccc1Cl [Example 4, 1-[4-(4-Chloro-3-methoxy-phenyl)-4-hydroxy-piperidin-1-yl]-2-(4-chloro-5-methyl-3-trifluoromethyl-pyrazol-1-yl)-ethanone] | > 6.00 |
| COc1cc(C2(O)CCN(C(=O)COc3ccc(Cl)cc3)CC2)ccc1Cl [Example 6, 1-[4-(4-Chloro-3-methoxy-phenyl)-4-hydroxy-piperidin-1-yl]-2-(4-chloro-phenoxy)-ethanone] | > 6.00 |
| COc1cc(C2(C#N)CCN(C(=O)Cn3nc(C(F)(F)F)c(Cl)c3C)CC2)ccc1Cl [Example 26] | > 6.00 |
| CC(=O)C1(c2ccccc2)CCN(C(=O)Cn2nc(C(F)(F)F)c(Cl)c2C)CC1 [Example 27, 1-(4-Acetyl-4-phenyl-piperidin-1-yl)-2-(4-chloro-5-methyl-3-trifluoromethyl-pyrazol-1-yl)-ethanone] | 4.60 to 6.00 |
| Cc1c(Cl)c(C(F)(F)F)nn1CC(=O)N1CCC(C(=N)NO)(c2ccc(Cl)cc2)CC1 [Example 21, 1-[2-(4-chloro-5-methyl-3-trifluoromethyl-pyrazol-1-yl)-acetyl]-4-(4-chloro-phenyl)-N-hydroxy-piperidine-4-carboxamidine] | > 6.00 |
| CCCC(=O)C1(c2ccccc2)CCN(C(=O)Cn2nc(C(F)(F)F)c(Cl)c2C)CC1 [Example 29, 1-(4-propylcarbonyl-4-phenyl-piperidin-1-yl)-2-(4-chloro-5-methyl-3-trifluoromethyl-pyrazol-1-yl)-ethanone] | > 6.00 |
| Cc1c(Cl)c(C(F)(F)F)nn1CC(=O)N1CCC(C(=O)N2CCN(C)CC2)(c2ccc(Cl)cc2)CC1 [Example 18, 2-(4-chloro-5-methyl-3-trifluoromethyl-pyrazol-1-yl)-1-[4-(4-chloro-phenyl)-4-(4-methyl-piperazine-1-carbonyl)-piperidin-1-yl]-ethanone] | < 4.60 |
| Cc1c(Cl)c(C(F)(F)F)nn1CC(=O)N1CCC(O)(c2ccc(Cl)c(C(F)(F)F)c2)CC1 [Example 9, 2-(4-Chloro-5-methyl-3-trifluoromethyl-pyrazol-1-yl)-1-(4-hydroxy-4-(4-chloro-3-trifluoromethyl)-phenyl-piperidin-1-yl)-ethanone] | 4.60 to 6.00 |
| COC(=O)C1(c2ccc(Cl)cc2)CCN(C(=O)Cn2nc(C(F)(F)F)c(Cl)c2C)CC1 [Example 2, 1-[2-(4-chloro-5-methyl-3-trifluoromethyl-pyrazol-1-yl)-acetyl]-4-(4-chloro-phenyl)-piperidine-4-carboxylic acid methyl ester] | > 6.00 |
| Cc1c(Cl)c(C(F)(F)F)nn1CC(=O)N1CCC(O)(c2ccccc2)CC1 [Example 7, 2-(4-Chloro-5-methyl-3-trifluoromethyl-pyrazol-1-yl)-1-(4-hydroxy-4-phenyl-piperidin-1-yl)-ethanone] | 4.60 to 6.00 |
| Cc1c(Cl)c(C(F)(F)F)nn1CC(=O)N1CCC(CN)(c2ccc(Cl)cc2)CC1 [Example 24, 1-[4-aminomethyl-4-(4-chloro-phenyl)-piperidin-1-yl]-2-(4-chloro-5-methyl-3-trifluoromethyl-pyrazol-1-yl)-ethanone] | 4.60 to 6.00 |
| Cc1c(Cl)c(C(F)(F)F)nn1CC(=O)N1CCC(C(=O)N2CCNCC2)(c2ccc(Cl)cc2)CC1 [Example 17, 2-(4-chloro-5-methyl-3-trifluoromethyl-pyrazol-1-yl)-1-[4-(4-chloro-phenyl)-4-(piperazine-1-carbonyl)-piperidin-1-yl]-ethanone] | < 4.60 |
| Cc1c(Cl)c(C(F)(F)F)nn1CC(=O)N1CCC(C(=O)N2CCCC2)(c2ccc(Cl)cc2)CC1 [Example 15, 2-(4-chloro-5-methyl-3-trifluoromethyl-pyrazol-1-yl)-1-[4-(4-chloro-phenyl)-4-(pyrrolidine-1-carbonyl)-piperidin-1-yl]-ethanone] | 4.60 to 6.00 |
| Cc1c(Cl)c(C(F)(F)F)nn1CC(=O)N1CCC(C(=O)O)(c2ccc(Cl)cc2)CC1 [Example 25, 1-[2-(4-chloro-5-methyl-3-trifluoromethyl-pyrazol-1-yl)-acetyl]-4-(4-chloro-phenyl)-piperidine-4-carboxylic acid] | < 4.60 |
| COc1cc(C2(O)CCN(C(=O)Cn3nc(-c4ncco4)c(Cl)c3C)CC2)ccc1Cl [Example 5, 1-[4-(4-Chloro-3-methoxy-phenyl)-4-hydroxy-piperidin-1-yl]-2-(4-chloro-5-methyl-3-oxazol-2-yl-pyrazol-1-yl)-ethanone] | > 6.00 |
| Cc1c(Cl)c(C(F)(F)F)nn1CC(=O)N1CCC(C#N)(c2ccc(Cl)cc2)CC1 [Example 1, 1-[2-(4-chloro-5-methyl-3-trifluoromethyl-pyrazol-1-yl)-acetyl]-4-(4-chloro-phenyl)-piperidine-4-carbonitrile] | > 6.00 |
| Cc1c(Cl)c(C(F)(F)F)nn1CC(=O)N1CCC(O)(c2cccc(C(F)(F)F)c2)CC1 [Example 11, 2-(4-Chloro-5-methyl-3-trifluoromethyl-pyrazol-1-yl)-1-(4-hydroxy-4-(3-trifluoromethyl)-phenyl-piperidin-1-yl)-ethanone] | 4.60 to 6.00 |
| CCN(CC)C(=O)C1(c2ccc(Cl)cc2)CCN(C(=O)Cn2nc(C(F)(F)F)c(Cl)c2C)CC1 [Example 14, 1-[2-(4-chloro-5-methyl-3-trifluoromethyl-pyrazol-1-yl)-acetyl]-4-(4-chloro-phenyl)-piperidine-4-diethylamide] | 4.60 to 6.00 |
| Cc1c(Cl)c(C(F)(F)F)nn1CC(=O)N1CCC(c2ccc(Cl)cc2)(c2nnn[nH]2)CC1 [Example 20, 2-(4-chloro-5-methyl-3-trifluoromethyl-pyrazol-1-yl)-1-[4-(4-chloro-phenyl)-4-(1H-tetrazol-5-yl)-piperidin-1-yl]-ethanone] | 4.60 to 6.00 |
| Cc1c(Cl)c(-c2ncco2)nn1CC(=O)N1CCC(C#N)(c2ccc(Cl)cc2)CC1 [Example 3, 1-[2-(4-chloro-5-methyl-3-oxazol-2-yl-pyrazol-1-yl)-acetyl]-4-(4-chloro-phenyl)-piperidine-4-carbonitrile] | > 6.00 |
| Cc1c(Cl)c(C(F)(F)F)nn1CC(=O)N1CCC(O)(c2ccc(Br)cc2)CC1 [Example 10, 2-(4-Chloro-5-methyl-3-trifluoromethyl-pyrazol-1-yl)-1-(4-hydroxy-4-(4-bromo)-phenyl-piperidin-1-yl)-ethanone] | 4.60 to 6.00 |
| Cc1c(Cl)c(C(F)(F)F)nn1CC(=O)N1CCC(O)(c2ccc(Cl)cc2)CC1 [Example 8, 2-(4-Chloro-5-methyl-3-trifluoromethyl-pyrazol-1-yl)-1-(4-hydroxy-4-(4-chloro)-phenyl-piperidin-1-yl)-ethanone] | > 6.00 |
| Cc1c(Cl)c(C(F)(F)F)nn1CC(=O)N1CCC(C#N)(c2ccccc2)CC1 [Example 12, 1-[2-(4-chloro-5-methyl-3-trifluoromethyl-pyrazol-1-yl)-acetyl]-4-phenyl-piperidine-4-carbonitrile] | 4.60 to 6.00 |
| Cc1c(Cl)c(C(F)(F)F)nn1CC(=O)N1CCC(C(N)=O)(c2ccc(Cl)cc2)CC1 [Example 22, 1-[2-(4-chloro-5-methyl-3-trifluoromethyl-pyrazol-1-yl)-acetyl]-4-(4-chloro-phenyl)-piperidine-4-carboxylic acid amide] | > 6.00 |
| CCC(=O)C1(c2ccccc2)CCN(C(=O)Cn2nc(C(F)(F)F)c(Cl)c2C)CC1 [Example 28, 1-(4-ethylcarbonyl-4-phenyl-piperidin-1-yl)-2-(4-chloro-5-methyl-3-trifluoromethyl-pyrazol-1-yl)-ethanone] | 4.60 to 6.00 |
| Cc1c(Cl)c(C(F)(F)F)nn1CC(=O)N1CCC(C(=O)N2CCOCC2)(c2ccc(Cl)cc2)CC1 [Example 19, 2-(4-chloro-5-methyl-3-trifluoromethyl-pyrazol-1-yl)-1-[4-(4-chloro-phenyl)-4-(4-morpholine-1-carbonyl)-piperidin-1-yl]-ethanone morpholine] | 4.60 to 6.00 |

From patent publication US7576218B2, “4-phenylpiperdine-pyrazole CCR1 antagonists” (ChemoCentryx, Inc., priority 2005, dated 2009)
